# Reference: ChEMBL document CHEMBL3885881, “DrugMatrix”
# Species: Rattus norvegicus
# Assay: DrugMatrix - Regimen: Daily Repeat
# Type: toxicity, organism-based, Sprague-Dawley
# Set-up: regimen Daily Repeat, gender Male, age 6-8 weeks
# Settings: in vivo, po, route oral GAVAGE, vehicle 100 % WATER; for ABSOLUTE BASOPHIL / ABSOLUTE EOSINOPHIL / ABSOLUTE LYMPHOCYTE / ABSOLUTE MONOCYTE / ABSOLUTE SEGMENTED NEUTROPHIL / BASOPHIL / EOSINOPHIL / ERYTHROCYTE COUNT / HEMATOCRIT / HEMOGLOBIN / LEUKOCYTE COUNT / LYMPHOCYTE / MEAN CORPUSCULAR HEMOGLOBIN / MEAN CORPUSCULAR HEMOGLOBIN CONCENTRATION / MEAN CORPUSCULAR VOLUME / MONOCYTE / NEUTROPHIL / NUCLEATED RED BLOOD CELLS / PLATELET COUNT: tissue Blood; for ALANINE AMINOTRANSFERASE / ALBUMIN / ALKALINE PHOSPHATASE / ASPARTATE AMINOTRANSFERASE / BLOOD UREA NITROGEN / CARBON DIOXIDE / CHLORIDE / CHOLESTEROL / CREATINE PHOSPHOKINASE / CREATININE / GLUCOSE / LACTATE DEHYDROGENASE / LIPASE / PHOSPHORUS / POTASSIUM / SODIUM / TOTAL BILIRUBIN / TOTAL PROTEIN / URIC ACID: tissue Plasma
# [1] = 0 mg/kg, 72 h, dose level Control, time 3 day
# [2] = 0 mg/kg, 120 h, dose level Control, time 5 day
# [3] = 5 mg/kg, 72 h, dose level Low, time 3 day
smiles,measurement,setting,value
COc1cc2nc(N3CCN(C(=O)C4COc5ccccc5O4)CC3)nc(N)c2cc1OC (centres undefined) [DOXAZOSIN],ABSOLUTE BASOPHIL,[1],0 CELLS/uL
same,ABSOLUTE EOSINOPHIL,[1],86.33 CELLS/uL
same,ABSOLUTE LYMPHOCYTE,[1],12090.17 CELLS/uL
same,ABSOLUTE MONOCYTE,[1],166.67 CELLS/uL
same,ABSOLUTE SEGMENTED NEUTROPHIL,[1],1090.17 CELLS/uL
same,BASOPHIL,[1],0%
same,EOSINOPHIL,[1],0.67%
same,ERYTHROCYTE COUNT,[1],5.57 x10E6/uL
same,HEMATOCRIT,[1],35.33%
same,HEMOGLOBIN,[1],13.83 G/DL
same,LEUKOCYTE COUNT,[1],13.43 x10E3/uL
same,LYMPHOCYTE,[1],89.83%
same,MEAN CORPUSCULAR HEMOGLOBIN,[1],24.88 pg
same,MEAN CORPUSCULAR HEMOGLOBIN CONCENTRATION,[1],39.15 G/DL
same,MEAN CORPUSCULAR VOLUME,[1],63.52 fL
same,MONOCYTE,[1],1.17%
same,NEUTROPHIL,[1],8.33%
same,NUCLEATED RED BLOOD CELLS,[1],0 /100WBC
same,PLATELET COUNT,[1],1181.33 x10E3/uL
same,ALANINE AMINOTRANSFERASE,[1],48.33 u/L
same,ALBUMIN,[1],4.1 G/DL
same,ALKALINE PHOSPHATASE,[1],395 u/L
same,ASPARTATE AMINOTRANSFERASE,[1],81.83 u/L
same,BLOOD UREA NITROGEN,[1],15.83 mg/dL
same,CARBON DIOXIDE,[1],24.17 mmol/L
same,CHLORIDE,[1],103.83 MEQ/L
same,CHOLESTEROL,[1],63.67 mg/dL
same,CREATINE PHOSPHOKINASE,[1],372.83 u/L
same,CREATININE,[1],0.18 mg/dL
same,GLUCOSE,[1],173.83 mg/dL
same,LACTATE DEHYDROGENASE,[1],188.33 u/L
same,LIPASE,[1],9.5 u/L
same,PHOSPHORUS,[1],11.95 mg/dL
same,POTASSIUM,[1],5.99 MEQ/L
same,SODIUM,[1],144.43 MEQ/L
same,TOTAL BILIRUBIN,[1],0.15 mg/dL
same,TOTAL PROTEIN,[1],5.95 G/DL
same,URIC ACID,[1],1.82 mg/dL
same,ABSOLUTE BASOPHIL,[2],0 CELLS/uL
same,ABSOLUTE EOSINOPHIL,[2],26.67 CELLS/uL
same,ABSOLUTE LYMPHOCYTE,[2],7583.83 CELLS/uL
same,ABSOLUTE MONOCYTE,[2],131.33 CELLS/uL
same,ABSOLUTE SEGMENTED NEUTROPHIL,[2],674.83 CELLS/uL
same,BASOPHIL,[2],0%
same,EOSINOPHIL,[2],0.33%
same,ERYTHROCYTE COUNT,[2],5.78 x10E6/uL
same,HEMATOCRIT,[2],36.48%
same,HEMOGLOBIN,[2],14.03 G/DL
same,LEUKOCYTE COUNT,[2],8.42 x10E3/uL
same,LYMPHOCYTE,[2],89.83%
same,MEAN CORPUSCULAR HEMOGLOBIN,[2],24.3 pg
same,MEAN CORPUSCULAR HEMOGLOBIN CONCENTRATION,[2],38.52 G/DL
same,MEAN CORPUSCULAR VOLUME,[2],63.15 fL
same,MONOCYTE,[2],1.67%
same,NEUTROPHIL,[2],8.17%
same,NUCLEATED RED BLOOD CELLS,[2],0 /100WBC
same,PLATELET COUNT,[2],1186.67 x10E3/uL
same,ALANINE AMINOTRANSFERASE,[2],50.17 u/L
same,ALBUMIN,[2],4.07 G/DL
same,ALKALINE PHOSPHATASE,[2],367.5 u/L
same,ASPARTATE AMINOTRANSFERASE,[2],81.67 u/L
same,BLOOD UREA NITROGEN,[2],16.17 mg/dL
same,CARBON DIOXIDE,[2],32.33 mmol/L
same,CHLORIDE,[2],101.5 MEQ/L
same,CHOLESTEROL,[2],65.33 mg/dL
same,CREATINE PHOSPHOKINASE,[2],255.33 u/L
same,CREATININE,[2],0.17 mg/dL
same,GLUCOSE,[2],139.33 mg/dL
same,LACTATE DEHYDROGENASE,[2],95 u/L
same,LIPASE,[2],10.5 u/L
same,PHOSPHORUS,[2],10.38 mg/dL
same,POTASSIUM,[2],6.11 MEQ/L
same,SODIUM,[2],145.55 MEQ/L
same,TOTAL BILIRUBIN,[2],0.17 mg/dL
same,TOTAL PROTEIN,[2],5.98 G/DL
same,URIC ACID,[2],0.93 mg/dL
same,ABSOLUTE BASOPHIL,[3],0 CELLS/uL
same,ABSOLUTE EOSINOPHIL,[3],0 CELLS/uL
same,ABSOLUTE LYMPHOCYTE,[3],13989.67 CELLS/uL
same,ABSOLUTE MONOCYTE,[3],387.67 CELLS/uL
same,ABSOLUTE SEGMENTED NEUTROPHIL,[3],2189.33 CELLS/uL
same,BASOPHIL,[3],0%
same,EOSINOPHIL,[3],0%
same,ERYTHROCYTE COUNT,[3],5.22 x10E6/uL
same,HEMATOCRIT,[3],34.5%
same,HEMOGLOBIN,[3],13.43 G/DL
same,LEUKOCYTE COUNT,[3],16.57 x10E3/uL
same,LYMPHOCYTE,[3],84.33%
same,MEAN CORPUSCULAR HEMOGLOBIN,[3],25.77 pg
same,MEAN CORPUSCULAR HEMOGLOBIN CONCENTRATION,[3],38.97 G/DL
same,MEAN CORPUSCULAR VOLUME,[3],66.17 fL
same,MONOCYTE,[3],2.33%
same,NEUTROPHIL,[3],13.33%
same,NUCLEATED RED BLOOD CELLS,[3],0 /100WBC
same,PLATELET COUNT,[3],1263.33 x10E3/uL
same,ALANINE AMINOTRANSFERASE,[3],47.33 u/L
same,ALBUMIN,[3],3.93 G/DL
same,ALKALINE PHOSPHATASE,[3],317.67 u/L
same,ASPARTATE AMINOTRANSFERASE,[3],97 u/L
same,BLOOD UREA NITROGEN,[3],16.33 mg/dL
same,CARBON DIOXIDE,[3],22 mmol/L
same,CHLORIDE,[3],103 MEQ/L
same,CHOLESTEROL,[3],59.67 mg/dL
same,CREATINE PHOSPHOKINASE,[3],763 u/L
same,CREATININE,[3],0.18 mg/dL
same,GLUCOSE,[3],187 mg/dL
same,LACTATE DEHYDROGENASE,[3],544.33 u/L
same,LIPASE,[3],9 u/L
same,PHOSPHORUS,[3],11.9 mg/dL
same,POTASSIUM,[3],5.79 MEQ/L
same,SODIUM,[3],142.7 MEQ/L
same,TOTAL BILIRUBIN,[3],0.17 mg/dL
same,TOTAL PROTEIN,[3],5.73 G/DL
same,URIC ACID,[3],1.7 mg/dL
